Tests used:
adenosine A2 receptor = target: T1, adenosine A2 receptor (Rattus norvegicus, UniProt P30543); assay: Adenosine Receptor Binding--A2 Receptor Affinity (RBA2), [3H]NECA, striatal membranes; settings: read-out: RBA-2 IC50
T1 construct: Brains were thawed and then kept on ice while the striata were dissected out; tissue Pel-Freez (Rogers, Ark.); host or cells: striata of Sprague-Dawley rats (Long-Evans hooded rats gave essentially identical results)
Protocol: Adenosine Receptor Binding--A2 Receptor Affinity (RBA2)
Brains from 200-500 g mixed sex Sprague-Dawley rats were purchased from Pel-Freez (Rogers, Ark.). Fresh brains from male Long-Evans hooded rats (Blue Spruce Farms, Altamont, NY) gave essentially identical results. Brains were thawed and then kept on ice while the striata were dissected out. Striata were disrupted in 10 vol of ice-cold 50 mM Tris.HCl (pH 7.7 at 25° C., pH 8.26 at 5° C.) (Tris) for 30 seconds in a Polytron PT-10 (Brinkmann) at setting 5. The suspension was centrifuged at 50,000 xg for ten minutes, the supernatant discarded, the pellet resuspended in 10 vol ice-cold Tris as above, recentrifuged, resuspended at 1 g/5ml, and stored in plastic vials at -70° C. (stable for at least six months). When needed, tissue was thawed at room temperature, disrupted in a Polytron, and kept on ice until used.
All incubations were for 60 minutes at 25° C. in 12×75 mm glass tubes containing 1 ml Tris with 5 mg original tissue weight of rat weight of rat striatal membranes, 4 nM [^3 H]--N-ethyl adenosine-5'-carboxamide ([^3 H]NECA), 50 nM N^6 -cyclopentyladenosine (to eliminate A1 receptor binding), 10 mM MgCl2, 0.1 units/ml of adenosine deaminase and 1% dimethylsulfoxide. N^6 -Cyclopentyladenosine was dissolved at 10 mM in 0.02N HCl and diluted in Tris. Stock solutions and dilutions of N^6 -cyclopentyladenosine could be stored at -20° C. for several months. Test compounds were dissolved at 10 mM in dimethylsulfoxide on the same day as the experiment, and diluted in dimethylsulfoxide to 100×the final incubation concentration. Control incubations received an equal volume (10 μl) of dimethylsulfoxide; the resulting concentration of dimethylsulfoxide had no effect on binding. [^3 H]NECA was diluted to 40 nM in Tris. The membrane suspension (5 mg/0.79 ml) contained sufficient MgCl2 and adenosine deaminase to give 10 mM and 0.1 units/ml, respectively, final concentration in the incubation. […] After all additions, the rack of tubes was vortexed, and the tubes were then incubated for 60 min at 25° C. in a shaking water bath. The rack of tubes was vortexed an additional time halfway through the incubation.
Incubations were terminated by filtration through 2.4 cm GF/B filters under reduced pressure. Each tube was filtered as follows: the contents of the tube were poured on the filter, 4 ml of ice-cold Tris were added to the tube and the contents poured onto the filter, and the filter was washed twice with 4 ml of ice-cold Tris. The filtration was complete in about twelve seconds. Filters were put in scintillation vials, 8 ml of Formula 947 scintillation fluid added, and the vials left overnight, shaken, and counted in a liquid scintillation counter at 40% efficiency.
Nonspecific binding was defined as binding in the presence of 100 μM N^6 -cyclopentyladenosine, and specific binding was defined as total binding minus nonspecific binding. The IC50 was calculated by weighted nonlinear least squares curve-fitting to the mass-action equation. [formula] where Y is cpm bound
T is cpm total binding without drug
S is cpm specific binding without drug
D is the concentration of drug and
K is the IC50 of the drug
Weighting factors were calculated under the assumption that the standard deviation was proportional to the predicted value of Y. Nonspecific binding was treated as a very large (infinite) concentration of drug in the computer analysis.

[1] = Antihypertensive evaluation (AHP3), aortic blood pressure in conscious rats; assay type: in vivo; settings: conscious rat
Text: ANTIHYPERTENSIVE EVALUATION (AHP3)
This test procedure is described in the following paragraphs.
A Method for the Direct Monitoring of Aortic Blood
Pressure and Heart Rate from Conscious Rats
The continuous monitoring of pulsatile blood pressure (BP) from unrestrained conscious rats surgically equipped with polyethylene cannulas was accomplished by means of a computer assisted data capture scheme (CADCS). The basic elements of the methodology are the cannulation procedure and the CADCS.
Rats were anesthetized with Telazol (1:1 tiletamine HCl and zolazepam HCl); 20-40 mg/kg IM and the descending aorta exposed via a midline incision. Cannulas fabricated from polyethylene tubing were inserted into the aorta via an undersized puncture hole below the renal arteries. The puncture hole was made by a 23 G disposable needle with a section of the aorta clamped off above and below the puncture site. The cannulas, consisting of a PE100 (0.86 mm ID) body and a PE50 (0.58 mm ID) tip, were attached to a trocar, inserted through the psoas muscle, and passed subcutaneously along the midline of the back and externalized between the ears. The cannulas were anchored to the psoas muscle and between the scalulae (3-0 green braided suture). The midline incision was closed in two steps (muscle first, skin second) using continuous over-and-over sutures (4-0 chronic). Each rat was then given penicillin 30,000 units subcutaneously (Penicillin G Procaine Sterile Suspension).
The rats were fitted with a harness-spring-swivel assembly designed to protect the cannula and to provide the rat relative freedom of movement. The harnesses were fabricated from nylon hook and loop tape cemented to a metal plate to which spring wires (18-8 stainless steel) were attached to brass swivels. Each polyethylene cannula was channeled through a spring and connected through a swivel to a pressure transducer (Model P23Gb; Statham Instruments; Hato Rey, Puerto Rico) and an infusion pump (Sage model 234-7; Orion Research, Cambridge MA) by means of PE100 tubing. While on test, each rat received a continuous slow infusion of heparinized saline solution (approximately 400 μl or 40 units of heparin per 24 hours period) to prevent clot formation. Additional "flushes" of the cannula with heparinized saline were carried out when the aortic pulse pressure (systolic minus diastolic) was less than 25 mm Hg.
The pulsatile blood pressure and heart rate of each of 32 rats was monitored every minute by means of two in-laboratory microcomputers communicating directly with a data concentrator computer. The data were first stored on the data concentrator disk and then transferred to a magnetic tape for analysis and report generation by the main research computer. The overall scheme involved modulating the primary signal from the pressure transducer, generating the primary data set of the one-minute values for systolic, diastolic, and mean blood pressures and heart rate by the in-lab microcomputer and the storage, analysis, and report generation by the main research computer.
The transducers were connected to analog signal conditioning modules. The modules provided a regulated excitation voltage for the transducers, amplification as required to interface the microprocessors and an active low pass filter to compensate for the pressure wave form distortion produced by the flexible, fluid filled, narrow cannula. The distortion was 22-26 Hz and this provided a reliable estimate of both systolic and diastolic blood pressure.
The microcomputers (one for each of two groups of 16 rats) were connected to the input components through the module interface units, an analog-to-digital converter for the pressure wave form signal and the digital inputs for the dose and event marker switches. The microcomputer controlled the sequential acquisition of data from the modular interface units through an internal synchronous time-of-day clock/time base generator. […]

T1 sequence (P30543 whole entry): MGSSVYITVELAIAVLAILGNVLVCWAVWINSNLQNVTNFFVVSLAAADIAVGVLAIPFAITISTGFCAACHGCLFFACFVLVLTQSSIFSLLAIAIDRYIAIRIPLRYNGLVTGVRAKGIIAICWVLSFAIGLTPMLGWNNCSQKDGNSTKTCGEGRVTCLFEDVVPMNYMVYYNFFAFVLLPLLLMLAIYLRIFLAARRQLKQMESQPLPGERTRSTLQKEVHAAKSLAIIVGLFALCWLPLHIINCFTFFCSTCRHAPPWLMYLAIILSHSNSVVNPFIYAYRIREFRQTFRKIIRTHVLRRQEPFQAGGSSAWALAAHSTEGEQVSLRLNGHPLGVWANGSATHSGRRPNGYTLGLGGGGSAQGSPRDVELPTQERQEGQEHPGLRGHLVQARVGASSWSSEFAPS

Structure (SMILES) | IC50 (adenosine A2 receptor) [nM] | Maximum BP ↓ MAP ([1]; 10 mg/kg) [%] | Maximum BP ↓ MAP ([1]; 3 mg/kg) [%] | Maximum BP ↓ MAP ([1]; 1 mg/kg) [%]
O[C@@H]1[C@H](O)[C@@H](CCl)O[C@H]1n1cnc2c(NCC3(c4cccs4)CC3)ncnc21 [Example 6, 5'-Chloro-5'-deoxy-N6-((1-thien-2-ylcyclopropyl)methyl)adenosine] | 67 | – | – | –
OC[C@H]1O[C@@H](n2cnc3c(NCC4(c5ccc(Cl)cc5)CC4)ncnc32)[C@H](O)[C@@H]1O [Example 12, N6-((1-(4-Chlorophenyl)cyclopropyl)methyl)adenosine] | 1200 | 23 | – | –
OC[C@H]1O[C@@H](n2cnc3c(NCC4(c5ccccc5)CCC4)ncnc32)[C@H](O)[C@@H]1O [Example 7, N6-((1-Phenylcyclobutyl)methyl)adenosine] | 150 | 32 | – | –
OC[C@H]1O[C@@H](n2cnc3c(NCC4(c5ccccc5)CCCCC4)ncnc32)[C@H](O)[C@@H]1O [Example 11, N6-((1-Phenylcyclohexyl)methyl)adenosine] | 3200 | 5 | – | –
OC[C@H]1O[C@@H](n2cnc3c(NCC4(c5cccs5)CCC4)ncnc32)[C@H](O)[C@@H]1O [Example 9, N6-((1-Thien-2-ylcyclobutyl)methyl)adenosine] | 87 | – | 10 | –
OC[C@H]1O[C@@H](n2cnc3c(NCC4(c5ccccc5)CCCC4)ncnc32)[C@H](O)[C@@H]1O [Example 10, N6-((1-Phenylcyclopentyl)methyl)adenosine] | 460 | 10 | – | –
OC[C@H]1O[C@@H](n2cnc3c(NCC4(c5cccs5)CC4)ncnc32)[C@H](O)[C@@H]1O [Example 3, N6-((1-Thien-2-ylcyclopropyl)methyl)adenosine] | 8.6 | – | 43 | –
OC[C@H]1O[C@@H](n2cnc3c(NCC4(c5ccccc5)CC4)ncnc32)[C@H](O)[C@@H]1O [Example 1, N6-((1-Phenylcyclopropyl)methyl)adenosine] | 80 | 23 | 23 | 13
OC[C@H]1O[C@@H](n2cnc3c(NCC4(c5cccc(Cl)c5)CC4)ncnc32)[C@H](O)[C@@H]1O [Example 2, N6-((1-(3-Chlorophenyl)cyclopropyl)methyl)adenosine] | 200 | – | – | –
O[C@@H]1[C@H](O)[C@@H](CCl)O[C@H]1n1cnc2c(NCC3(c4ccccc4)CC3)ncnc21 [Example 5, 5'-Deoxy-5'-chloro-N6-((1-phenylcyclopropyl)methyl)adenosine] | 420 | – | – | –
OC[C@H]1O[C@@H](n2cnc3c(NCC4(c5cccc(Cl)c5)CCC4)ncnc32)[C@H](O)[C@@H]1O [Example 8, N6-((1-(3-Chlorophenyl)cyclobutyl)methyl)adenosine] | 320 | – | – | –
